We go through one compound from ChEMBL document CHEMBL5634085, “Design, synthesis and antitrypanosomatid activity of 2-nitroimidazole-3,5-disubstituted isoxazole compounds based on benznidazole” (Eur J Med Chem, 2023).

Molecules are shown by their SMILES. The source made the active and inactive calls. The rule behind the calls is not given here.

Data set [1] deals with Trypanosoma cruzi. The data set can be described thus: Antitrypanosomal activity against Trypanosoma cruzi Tulahuen lacZ expressing beta-galactosidase amastigotes infected in monkey LLC-MK2 cells assessed as inhibition of amastigotes pre-infected in cells for 48 hrs followed by compound addition and measured after 72 hrs by CPRG reagent based absorbance analysis. Type of data set: functional, organism-based.

The nature of data set [2]: Toxicity in BALB/c mouse infected with Trypanosoma cruzi Y trypomastigotes assessed as body weight gain at 100 mg/kg/day, po administrated via gavage for consecutive 10 days. Type of data set: organism-based. The conditions noted are these: in vivo, 240 h, time 10 day.
For data set [3], the system named is Trypanosoma cruzi. As to the kind of experiment: Binding affinity to Trypanosoma cruzi type I nitro reductase at 25 uM incubated for 5 mins in the presence of NADH by microplate reader analysis.
In data set [4] the test system is Trypanosoma cruzi. As to the kind of experiment: Antitrypanosomal activity against Trypanosoma cruzi Y strain trypomastigotes infection induced hepatosplenomegaly BALB/c male mouse model assessed as change in infection-mediated liver weight at 25 mg/kg/day, po administrated for consecutive 10 days. Type of data set: functional, organism-based. The conditions noted are these: time 10.0 day.

Data set [5] has as its system Trypanosoma cruzi. As to the kind of experiment: Effect on infection-mediated heart weight in Trypanosoma cruzi Y strain trypomastigotes infected in BALB/c mouse model at 25 mg/kg/day, po administered for consecutive 10 days. The conditions noted are these: time 10.0 day. Type of data set: functional, organism-based.
In data set [6] the test system is Trypanosoma cruzi. The data set can be described thus: Antitrypanosomal activity against Trypanosoma cruzi Y trypomastigotes infected in BALB/c mouse model assessed as reduction of parasitemia level at 25 mg/kg/day, po administered via gavage for consecutive 10 days and measured on day 5,7,9 and 11. Type of data set: functional, organism-based. The conditions noted are these: time 11.0 day.

The nature of data set [7]: Toxicity in BALB/c mouse infected with Trypanosoma cruzi Y trypomastigotes assessed as animal survival at 25 mg/kg/day, po administrated via gavage for consecutive 10 days relative to control. The conditions noted are these: in vivo, time 10 day. Type of data set: organism-based.
The nature of data set [8]: Toxicity in BALB/c mouse infected with Trypanosoma cruzi Y trypomastigotes assessed as animal survival at 100 mg/kg/day, po administrated via gavage for consecutive 10 days relative to control. Type of data set: organism-based. The conditions noted are these: in vivo, time 10 day.
Data set [9] relates to Trypanosoma cruzi. The data set can be described thus: Binding affinity to Trypanosoma cruzi type I nitro reductase at 10 uM incubated for 5 mins in the presence of NADH by microplate reader analysis.
The nature of data set [10]: Cytotoxicity against monkey LLC-MK2 cells incubated for 72 hrs by MTT assay. As to conditions: rhesus monkey. Type of data set: toxicity, cell-based, Macaca mulatta. (Formazan colour is commonly taken as a measure of viable cells.)
The test system of data set [11] is Trypanosoma cruzi. As to the kind of experiment: Antitrypanosomal activity against Trypanosoma cruzi Y trypomastigotes infected in BALB/c mouse model assessed as reduction of parasite load in cardiac tissue by measuring reduction in DNA copy number at 25 to 100 mg/kg/day, po administered via gavage observed on 11 day of post infection by qPCR analysis relative to control. Type of data set: functional. The arrangement: scale not given: the % may be the effect or the level left. The conditions noted are these: dose 25-100 mg/kg/day. In general terms: In qPCR the cycle at which signal appears reflects the starting amount.

Data set [12] is described as follows: Toxicity in BALB/c mouse infected with Trypanosoma cruzi Y trypomastigotes assessed as body weight gain at 25 mg/kg/day, po administrated via gavage for consecutive 10 days. Type of data set: organism-based. As to conditions: in vivo, 240 h, time 10 day.
For data set [13], the system named is Trypanosoma cruzi. The data set can be described thus: Antitrypanosomal activity against Trypanosoma cruzi Y strain trypomastigotes infection induced hepatosplenomegaly BALB/c male mouse model assessed as change in infection-mediated spleen weight at 25 mg/kg/day, po administrated for consecutive 10 days. Type of data set: functional, organism-based. As to conditions: time 10.0 day.

The subject of data set [14] is Trypanosoma cruzi. As to the kind of experiment: Effect on infection-mediated heart weight in Trypanosoma cruzi Y strain trypomastigotes infected in BALB/c mouse model at 100 mg/kg/day, po administered for consecutive 10 days. The conditions noted are these: time 10.0 day. Type of data set: functional, organism-based.
The nature of data set [15]: Selectivity index, ratio of CC50 for monkey LLC-MK2 cells to IC50 for Trypanosoma cruzi Tulahuen lacZ expressing beta-galactosidase amastigotes infected monkey LLC-MK2 cells. The conditions noted are these: read-out: Ratio CC50/IC50. Type of data set: toxicity.

One may read the IC50 as the concentration that inhibits the measured activity by half. The term CC50 denotes the concentration giving 50% cytotoxicity. On to `O=C(Cn1ccnc1[N+](=O)[O-])NCc1ccccc1` [BENZNIDAZOLE], for which the IC50 with Trypanosoma cruzi [1] worked out at 3.8 µM. The Activity result was “Non-Toxic” in [2], 99% with Trypanosoma cruzi [11] and “Non-Toxic” in data set [12]. For the same compound, the results for the Kobs in the data set with Trypanosoma cruzi [3] and with Trypanosoma cruzi [9] were 0.3 s⁻¹ and 0.13 s⁻¹, respectively. Besides, the outcome in the data set on Trypanosoma cruzi [4] and in the data set with Trypanosoma cruzi [13] was Active. For the same compound, the outcome in the data set on Trypanosoma cruzi [5], with Trypanosoma cruzi [6] and in the data set with Trypanosoma cruzi [14] was inactive. The survival at 240 h in [7] and in data set [8] was 100% throughout. This compound also yielded a 50% cytotoxic concentration (CC50) at 72 h in data set [10] greater than 50 µM. Besides, the selectivity ratio in [15] was greater than 9.3.
